Patent publication US20220213197A1 (priority 2019, published 2022)
Where “and” joins values, the source holds several entries; their conditions need not be identical. Equal entries are not always repeated. Where two headings read alike, the source gives them in different places.

Legend:
[1] = tested on: influenza A/California/07/09(H1N1)pdm09; type: in vivo, mice
[2] = tested on: Chlamydophila pneumonia CM1 strain; assay: Lung infection model with Chlamydophila pneumonia; type: in vivo, C57BL/6J mice
[3] = tested on: Clostridium perfringens (ATCC 13124)
[4] = tested on: Klebsiella pneumoniae 8637 strain; assay: Neutropenic lung infection model; type: in vivo, ICR mice; conditions: for Decrease in the number of CFU vs control (placebo): Day 5
[5] = tested on: carrageenan induced inflammation in rats; assay: Carrageenan induced paw oedema; type: in vivo
Protocol: Inflammatory response was induced in animals by subplantar injection (into the plantar aponeurosis of the left hind paw) of 0.1 ml 1% carrageenan solution.
The severity of inflammatory response was assessed by estimating oedema weight gain in mg calculated as a difference between the paw weights with and without oedema.

[6] = tested on: Streptococcus pyogenes (ATCC BAA-2469); assay: Soft tissue (thigh) infection model in neutropenic mice; type: in vivo; conditions: 24 hours post infection
[7] = tested on: Mycobacterium tuberculosis; assay: Antituberculosis activity in guinea pig model of experimental tuberculosis; conditions: in vivo
[8] = tested on: Pseudomonas aeruginosa (RP73); assay: Pseudomonas aeruginosa lung infection in rats; type: in vivo, Sprague-Dawley rats
[9] = tested on: Klebsiella pneumoniae BAA-1705; assay: Bacterial pneumonia in neutropenic mice, AMC-resistant strain (Study No. 1); type: in vivo
[10] = 48 hours after infection (medicament: 48 hours and onwards)

## CCOC(=O)C1=C[C@@H](OC(CC)CC)[C@H](NC(C)=O)[C@@H](N)C1 [Tamiflu, Oseltamivir]
[1]; Day 0
  Body weights of experimental animals expressed as M ± SD: 16.7 ± 1.2
[1]; Day 5
  Body weights of experimental animals expressed as M ± SD: 15.5 ± 1.4
[1]; Day 9
  Body weights of experimental animals expressed as M ± SD: 13.6 ± 1.7
[1]; Day 12
  Body weights of experimental animals expressed as M ± SD: 14.9 ± 2.2
[1]; Day −5
  Body weights of experimental animals expressed as M ± SD: 17.8 ± 1.2
[1]; Day −15
  Body weights of experimental animals expressed as M ± SD: 16.1 ± 1.0
[1]; PI=((Mc−Me)/Mc)×100%
  Protection index, %: 57.1%
[1]; mean life expectancy over 14 days
  MLE: 8.6 days
[1]; mouse, in vivo
  Mortality rate, %: 30%
  Viral titer in lung tissue, Mean: 4.8 Ig TCID50/0.2 ml
[1]; mouse, in vivo, listed as 2
  Viral titer in lung tissue, individual animals: 4.5 Ig TCID50/0.2 ml (5×) and 5.0 Ig TCID50/0.2 ml (2×) and 4.0 Ig TCID50/0.2 ml and 5.5 Ig TCID50/0.2 ml and 6.0 Ig TCID50/0.2 ml
[1]; vs negative control
  MLE increase: 0.2 days

## CC[C@H]1OC(=O)[C@H](C)[C@@H](O[C@H]2C[C@@](C)(OC)[C@@H](O)[C@H](C)O2)[C@H](C)[C@@H](O[C@@H]2O[C@H](C)C[C@H](N(C)C)[C@H]2O)[C@](C)(O)C[C@@H](C)CN(C)[C@H](C)[C@@H](O)[C@]1(C)O [azithromycin]
[2]; Day 3 after infection
  Death rate: 19%
  IL-1β concentration in lung tissue, % of the control levels (Group 1): 17%
  IL-6 concentration in lung tissue, % of the control levels (Group 1): 15%
  Number of infected HEp2 cells (bacterial load of lung homogenate), % of placebo: 15%
[2]; Day 6 after infection
  IL-1β concentration in lung tissue, % of the control levels (Group 1): 7%
  IL-6 concentration in lung tissue, % of the control levels (Group 1): 8%
  Number of infected HEp2 cells (bacterial load of lung homogenate), % of placebo: 17%
[2]; Day 12 after infection
  IL-1β concentration in lung tissue, % of the control levels (Group 1): 6%
  IL-6 concentration in lung tissue, % of the control levels (Group 1): 5%
  Number of infected HEp2 cells (bacterial load of lung homogenate), % of placebo: 5%
[2]; whole study, deaths first recorded on Day 3
  Survival rate: 81%

## CO[C@@]1(NC(=O)Cc2cccs2)C(=O)N2C(C(=O)O)=C(COC(N)=O)CS[C@@H]21 [cefoxitin]
[3]; 24 hours after infection
  Animals alive: 55%
[3]; [10]
  Animals alive: 15%
[3]; 72 hours after infection
  Animals alive: 15%

## C[C@@H](O)[C@H]1C(=O)N2C(C(=O)O)=C(SCCN=CN)C[C@H]12 [imipenem]
[4]; Day 1 after infection
  Animals survived: 85%
[4]; Day 2
  Animals survived: 70%
[4]; Day 3 (imipenem: Day 3 and onwards)
  Animals survived: 50%
[4]; blood
  Decrease in the number of CFU vs control (placebo): 67%
[4]; kidneys
  Decrease in the number of CFU vs control (placebo): 61%
[4]; liver
  Decrease in the number of CFU vs control (placebo): 40%
[4]; lungs
  Decrease in the number of CFU vs control (placebo): 48%
[4]; spleen
  Decrease in the number of CFU vs control (placebo): 45%

## COc1ccc2c(c1)c(CC(=O)O)c(C)n2C(=O)c1ccc(Cl)cc1 [indomethacin, Indomethacin]
[5]
  Decrease of oedema weight as compared to the control: 57.9%

## CC(=O)NC[C@H]1CN(c2ccc(N3CCOCC3)c(F)c2)C(=O)O1 [placebo + L, linezolid]
[6]
  Mean bacterial burden in the femoral tissue: 5.5 CFU/g, log10

## CC[C@H]1OC(=O)[C@H](C)C(=O)[C@H](C)[C@@H](O[C@@H]2O[C@H](C)C[C@H](N(C)C)[C@H]2O)[C@](C)(OC)C[C@@H](C)C(=O)[C@H](C)[C@H]2N(CCCCn3cnc(-c4cccnc4)c3)C(=O)O[C@]12C [placebo + T, telithromycin]
[6]
  Mean bacterial burden in the femoral tissue: 8.4 CFU/g, log10

## NNC(=O)c1ccncc1 [placebo + isoniazid, Isoniazid]
[7]
  Difference between initial and final body weight of animals: 180.6 ± 28.4 g
  Life expectancy, units: 2.7 ± 0.09 units

## CN(C)[C@@H]1C(O)=C(C(N)=O)C(=O)[C@@]2(O)C(O)=C3C(=O)c4c(O)cccc4[C@@](C)(O)[C@H]3C[C@@H]12 [tetracycline]
[3]; 24 hours after infection
  Animals alive: 85%
[3]; [10]
  Animals alive: 80%
[3]; 72 hours after infection
  Animals alive: 80%

## NC[C@H]1O[C@H](O[C@H]2[C@H](O)[C@@H](O[C@H]3O[C@H](CO)[C@@H](O)[C@H](N)[C@H]3O)[C@H](N)C[C@@H]2N)[C@H](N)C[C@@H]1O [tobramycin]
[8]; Day 5
  Decrease of bronchoalveolar lavage CFU count compared to placebo: 88%
  Decrease of bronchoalveolar lavage CFU count compared to the untreated animals: 88%
  Reduction of lung CFU count compared to placebo: 19%
  Reduction of lung CFU count compared to the untreated animals: 29%
[8]; vs baseline
  Overall decrease in body weight by the end of the study: 4%

## Gentamicin
[9]; AMC-resistant strain, 10^6 CFU/mouse
  Animals survived: 70%
[9]; follow-up period
  Body weight evolution: body weight evolution was observed from 54 h
